Assay results reported in patent US20240075003A1, “Pelargonic Acid for Use Against Viral Infections” (priority 2021, published 2024).
“Also recorded” adds a separate entry of the source.

Key:
[1] = system: Porcine Reproductive and Respiratory Syndrome virus (PRRS); experiment: Cytopathic effect (CPE) in Vero cells infected with PRRS virus, MCFA mixtures added; type: cell-based; parameters: key: 4 = total destruction of the cells; 3 = medium destruction; 2 = low destruction; 1 = no destruction; details: 0.1% concentration in tissue culture, 5 days post infection
PED virus = type: cell-based, Porcine Epidemic Diarrhea virus
ASF = system: ASF; parameters: species or system African Swine Fever Virus
[2] = system: African Swine Fever Virus (ASFV)

SMILES | CPE (first test) [1] | CPE (second test) [1] | Protection against viral infection and cytolytic effect of the cells (PED virus) | Viral load of ASF compared with ester form or untreated feed (ASF) | Cq value for ASFV compared to positive control [2]
CCCCCC(=O)O [100% C6, caproic acid] | 3/3 | 3/3 | – | – | –
CCCCCCCC(=O)O [100% C8, caprylic acid] | 2/2 | 2/2 | – | – | –
CCCCCCCCC(=O)O [100% C9, pelargonic acid] | 2/2 | 2/2 | gave the best results | significantly reduced the viral load | –
CCCCCCCCCC(=O)O [100% C10, capric acid] | 2 | 4 | – | – | –
CCCCCCCCC(=O)O [Composition F1, pelargonic acid] | – | – | – | – | significantly increase the Cq value; also recorded: induced a statistical increase in Cq value
